Assay results as given in ChEMBL document CHEMBL5500360, “Discovery of N-(4-((6-(3,5- Dimethoxyphenyl)-9H-purine derivatives as irreversible covalent FGFR inhibitors” (Eur J Med Chem, 2024).

Assays:
MDA-MB-435 = assay: cells; conditions: Homo sapiens, MDA-MB-435, 72 h
Description: Antiproliferative activity against human MDA-MB-435 cells assessed as inhibition of cell growth incubated for 72 hrs by MTT assay

in vitro = conditions: human
Description: Cytotoxicity against HUVEC cells assessed as inhibition of cell growth incubated for 72 hrs by MTT assay

HepG2 = assay: cells; conditions: Homo sapiens, HepG2, 72 h
KYSE-150 cell line = assay: cells; conditions: Homo sapiens, KYSE-150, 72 h
Description: Antiproliferative activity against human KYSE-150 cells assessed as inhibition of cell growth incubated for 72 hrs by MTT assay

MDA-MB-231 = assay: cells; conditions: Homo sapiens, MDA-MB-231, 72 h
[1] = Metabolic stability in mouse liver microsomes assessed as intrinsic clearance at 1 uM incubated for 45 mins by LC-MS/MS analysis; type: ADME, Microsome; conditions: read-out: CLH
[2] = Metabolic stability in rat liver microsomes assessed as intrinsic clearance at 1 uM incubated for 45 mins by LC-MS/MS analysis; type: ADME, Microsome; conditions: read-out: CLH
[3] = Metabolic stability in mouse liver microsomes assessed as parent compound remaining at 1 uM measured after 45 mins by LC-MS/MS analysis; type: ADME, Microsome; conditions: read-out: Stability
[4] = Metabolic stability in rat liver microsomes assessed as half-life at 1 uM incubated for 45 mins by LC-MS/MS analysis; type: ADME, Microsome
[5] = Metabolic stability in mouse liver microsomes assessed as parent compound remaining at 1 uM measured after 5 mins by LC-MS/MS analysis; type: ADME, Microsome; conditions: read-out: Stability
[6] = Metabolic stability in rat liver microsomes assessed as parent compound remaining at 1 uM measured after 45 mins by LC-MS/MS analysis; type: ADME, Microsome; conditions: read-out: Stability
[7] = Metabolic stability in human liver microsomes assessed as parent compound remaining at 1 uM measured after 30 mins by LC-MS/MS analysis; type: ADME, Microsome; conditions: read-out: Stability
[8] = Metabolic stability in rat liver microsomes assessed as parent compound remaining at 1 uM measured after 15 mins by LC-MS/MS analysis; type: ADME, Microsome; conditions: read-out: Stability
[9] = Metabolic stability in human liver microsomes assessed as parent compound remaining at 1 uM measured after 15 mins by LC-MS/MS analysis; type: ADME, Microsome; conditions: read-out: Stability
[10] = Metabolic stability in human liver microsomes assessed as half-life at 1 uM incubated for 45 mins by LC-MS/MS analysis; type: ADME, Microsome
[11] = Metabolic stability in human liver microsomes assessed as intrinsic clearance at 1 uM incubated for 45 mins by LC-MS/MS analysis; type: ADME, Microsome; conditions: read-out: CLH
[12] = Metabolic stability in mouse liver microsomes assessed as parent compound remaining at 1 uM measured after 15 mins by LC-MS/MS analysis; type: ADME, Microsome; conditions: read-out: Stability
[13] = Metabolic stability in human liver microsomes assessed as parent compound remaining at 1 uM measured after 45 mins by LC-MS/MS analysis; type: ADME, Microsome; conditions: read-out: Stability
[14] = Metabolic stability in rat liver microsomes assessed as parent compound remaining at 1 uM measured after 30 mins by LC-MS/MS analysis; type: ADME, Microsome; conditions: read-out: Stability
[15] = Metabolic stability in mouse liver microsomes assessed as parent compound remaining at 1 uM measured after 30 mins by LC-MS/MS analysis; type: ADME, Microsome; conditions: read-out: Stability
[16] = Metabolic stability in human liver microsomes assessed as parent compound remaining at 1 uM measured after 5 mins by LC-MS/MS analysis; type: ADME, Microsome; conditions: read-out: Stability
[17] = Metabolic stability in mouse liver microsomes assessed as half-life at 1 uM incubated for 45 mins by LC-MS/MS analysis; type: ADME, Microsome
[18] = Metabolic stability in rat liver microsomes assessed as parent compound remaining at 1 uM measured after 5 mins by LC-MS/MS analysis; type: ADME, Microsome; conditions: read-out: Stability

Row | Compound | IC50 (MDA-MB-435) | IC50 at 72 h (in vitro; HUVEC cells) | IC50 (HepG2) | IC50 (KYSE-150 cell line) | IC50 (MDA-MB-231) | further results
1 | C=CC(=O)Nc1ccc(Cn2cnc3c(-c4ccccc4)ncnc32)cc1 | 12.8 µM | 81.3 µM | 9.34 µM | 11.2 µM | 7.22 µM | –
2 | C=CC(=O)Nc1ccc(C(=O)n2ccc3c(Cl)ncnc32)cc1 | 10 µM | 56.1 µM | 40.1 µM | 10.1 µM | 29.4 µM | –
3 | C=CC(=O)Nc1ccc(Cn2cnc3c(-c4cccs4)ncnc32)cc1 | 15.7 µM | 77.2 µM | 11.1 µM | 12.2 µM | 6.18 µM | –
4 | C=CC(=O)Nc1ccc(C(=O)n2ncc3cccnc32)cc1 | 33.8 µM | 82.2 µM | 42.6 µM | 9.83 µM | 26.7 µM | –
5 | C=CC(=O)Nc1ccc(Cn2cnc3c(-c4cc5ccccc5o4)ncnc32)cc1 | 20.1 µM | 79.2 µM | 12.2 µM | 13.5 µM | 6.53 µM | –
6 | C=CC(=O)Nc1ccc(Cn2cnc3c(-c4cc5ccccc5s4)ncnc32)cc1 | 11.1 µM | 79.1 µM | 9.26 µM | 8.26 µM | 13.9 µM | –
7 | O=C(CCl)Nc1ccc(Cn2cnc3c(Cl)ncnc32)cc1 | 26.4 µM | 64 µM | 27.3 µM | 12.3 µM | 21.2 µM | –
8 | C=CC(=O)Nc1ccc(C(=O)n2ccc3cc(Cl)cnc32)cc1 | 18.5 µM | 80.4 µM | 45 µM | 10.8 µM | 34.8 µM | –
9 | C=C(C)C(=O)Nc1ccc(Cn2cnc3c(Cl)ncnc32)cc1 | 29.4 µM | 80.9 µM | 48.4 µM | 26 µM | 66.3 µM | –
10 | C=CC(=O)Nc1ccc(Cn2cnc3c(Cl)ncnc32)cc1 | 5.93 µM | 50.5 µM | 2.81 µM | 2.95 µM | 2.64 µM | –
11 | O=C(Nc1ccc(Cn2cnc3c(Cl)ncnc32)cc1)C1CC1 | 31.6 µM | 81.2 µM | 27 µM | 10.6 µM | 9.64 µM | –
12 | C=CC(=O)N1CC[C@@H](n2nc(C#Cc3cc(OC)cc(OC)c3)c3c(N)ncnc32)C1 | 16.3 µM | – | – | 17.6 µM | – | IC50 at 72 h (in vitro; huvec): 63.6 µM
13 | CC(C)=CC(=O)Nc1ccc(Cn2cnc3c(Cl)ncnc32)cc1 | 30.1 µM | 77.1 µM | 19.1 µM | 13.3 µM | 7.36 µM | –
14 | CC(C)C(=O)Nc1ccc(Cn2cnc3c(Cl)ncnc32)cc1 | 29.4 µM | 79.6 µM | 27.6 µM | 18.9 µM | 7.17 µM | –
15 | CC(Cl)C(=O)Nc1ccc(Cn2cnc3c(Cl)ncnc32)cc1 (stereo unspecified) | 32.2 µM | 81.8 µM | 17.8 µM | 9.46 µM | 9.87 µM | –
16 | O=C(c1ccc(F)cc1)C1CCN(CCn2c(=O)[nH]c3ccccc3c2=O)CC1 [KETANSERIN] | – | – | – | – | – | CLint scaled at 1 µM [1]: 584 mL/min/kg; CLint scaled at 1 µM [2]: 188 mL/min/kg; remaining at 0.75 h, 1 µM [3]: 8.57%; half-life at 1 µM [4]: 13.2 min; remaining at 5 min, 1 µM [5]: 70.3%; remaining at 0.75 h, 1 µM [6]: 14.1%; remaining at 0.5 h, 1 µM [7]: 55.1%; remaining at 0.25 h, 1 µM [8]: 48.5%; remaining at 0.25 h, 1 µM [9]: 68.5%; half-life at 1 µM [10]: 28.6 min; CLint scaled at 1 µM [11]: 60.8 mL/min/kg; remaining at 0.25 h, 1 µM [12]: 38.3%; remaining at 0.75 h, 1 µM [13]: 45.9%; remaining at 0.5 h, 1 µM [14]: 24.5%; remaining at 0.5 h, 1 µM [15]: 18.3%; remaining at 5 min, 1 µM [16]: 84.7%; half-life at 1 µM [17]: 9.35 min; remaining at 5 min, 1 µM [18]: 76.3%
17 | CCC(=O)Nc1ccc(Cn2cnc3c(Cl)ncnc32)cc1 | 30.1 µM | 80.1 µM | 28.5 µM | 13.3 µM | 7.93 µM | –

Further lines, with some results ahead:

Row | IC50 (MDA-MB-435) | IC50 at 72 h (in vitro; HUVEC cells) | IC50 (HepG2) | IC50 (KYSE-150 cell line) | IC50 (MDA-MB-231) | Compound | further results
18 | 20.8 µM | 57.1 µM | 24.2 µM | 23.8 µM | 23.8 µM | C=CC(=O)Nc1cc(Cn2cnc3cnc(Cl)nc32)ccc1F | –
19 | 32.5 µM | 64.2 µM | 30.5 µM | 13.6 µM | 20.3 µM | C=CC(=O)Nc1cc(Cn2nnc3c(C(=O)OC)cccc32)ccc1F | –
20 | 26.2 µM | 79.3 µM | 25.1 µM | 15.9 µM | 40.3 µM | C=CC(=O)Nc1cc(Cn2ccc3ncnc(Cl)c32)ccc1F | –
21 | 6.3 µM | 69.7 µM | 16.4 µM | 9.84 µM | 29.7 µM | C=CC(=O)Nc1cc(Cn2ncc3ccc(Br)cc32)ccc1F | –
22 | 27.4 µM | 75.5 µM | 28.1 µM | 8.23 µM | 37.4 µM | C=CC(=O)Nc1cc(Cn2ccc3cc(Br)cnc32)ccc1F | –
23 | 24.6 µM | 76.5 µM | 11.1 µM | 7.26 µM | 7.21 µM | C=CC(=O)Nc1cc(Cn2ccc3ccc(Br)cc32)ccc1F | –
24 | 24.3 µM | 64.5 µM | 24.7 µM | 13.8 µM | 25.8 µM | C=CC(=O)Nc1cc(Cn2cnc3ccc(Cl)nc32)ccc1F | –
25 | 27.1 µM | 60.3 µM | 26.8 µM | 7.68 µM | 29.3 µM | C=CC(=O)Nc1cc(Cn2ccc3c(Cl)ncnc32)ccc1F | –
26 | 18.9 µM | 75.4 µM | 39.4 µM | 16.8 µM | 24.4 µM | C=CC(=O)Nc1ccc(C(=O)n2ccc3cc(Br)cnc32)cc1 | –
27 | 27 µM | 46.2 µM | 29.6 µM | 6.86 µM | 10 µM | C=CC(=O)Nc1cc(Cn2nnc3c(C(=O)NCC4CC(F)(F)C4)cccc32)ccc1F | –
28 | 5.67 µM | 71.4 µM | 15.7 µM | 3.78 µM | 10.1 µM | C=CC(=O)Nc1cc(Cn2cnc3c(Cl)ncnc32)ccc1F | –
29 | 13.2 µM | 75.2 µM | 8.36 µM | 14.3 µM | 5.64 µM | C=CC(=O)Nc1ccc(Cn2cnc3c(-c4ccc(F)c(F)c4)ncnc32)cc1 | –
30 | 27.2 µM | 54.4 µM | 23.7 µM | 23 µM | 27.2 µM | C=CC(=O)Nc1cc(Cn2ccc3c(Cl)ccnc32)ccc1F | –
31 | 24.1 µM | 54.6 µM | 29.1 µM | 5.21 µM | 9.15 µM | C=CC(=O)Nc1cc(Cn2ncc3ccncc32)ccc1F | –
32 | 3.3 µM | 81 µM | 51.1 µM | 6.86 µM | 40 µM | C=CC(=O)Nc1ccc(C(=O)n2ncc3ccc(Br)cc32)cc1 | –
33 | 27.9 µM | 50.9 µM | 19.9 µM | 16.2 µM | 29.2 µM | C=CC(=O)Nc1cc(Cn2nnc3c(C(=O)NCC(F)F)cccc32)ccc1F | –
